Experimental data: US20240188561A1, “ADDITIVES FOR ENHANCING THE PESTICIDAL EFFECTIVENESS OF PESTICIDAL MICROORGANISMS” (priority 2021, published 2024)

Legend:
Test in all cases: Additive compatibility with microbial growth (growth slope by OD 620 nm)
Assay type in all cases: cell-based
Settings in all cases: additive 0.01-5 %, exposed 4 hours at 16° C., then tryptic soy broth 30° C., slope compared to 0% sample
[1] = system: Bacillus firmus
[2] = system: Bacillus subtilis
[3] = system: Pseudomonas fluorescens
[4] = system: Bacillus amyloliquefaciens

| Compound | Influence of additive on microbial growth slope (compatibility), Bacillus firmus [1] | Influence of additive on microbial growth slope (compatibility), Bacillus subtilis [2] | Influence of additive on microbial growth slope (compatibility), Pseudomonas fluorescens [3] | Influence of additive on microbial growth slope (compatibility), Bacillus amyloliquefaciens [4] |
| --- | --- | --- | --- | --- |
| 2-propylheptanol Alkoxylate with 5 moles EO [xi-4] | S | S | S | S |
| 2-propylheptanol Alkoxylate with 7 moles EO [xi-5] | S | S | S | S |
| 2-propylheptanol POE 5 [xi-3] | S | S | S | S |
| CCCCCCCC/C=C\CCCCCCCC(=O)OC [ii-4, Oleic acid methyl ester] | N | N | N | E (E represents an Enhancing result) |
| CC(O)C(=O)N(C)C (centres unmarked) [xv-1, Dimethyl lactamide] | N | S | N | S |
| Butyl alcohol POP 31 POE 31 [vii-7] | N | N | N | N |
| C8-C10 alkylpolyglycoside [iv-1] | N | N | N | N |
| C8-C10 dimethyl amide [xv-2] | S | S | S | S |
| C8-C10 fatty alcohol [xvi-1] | S | S | S | S |
| C12-C14 dimethyl amide [xv-3] | S | S |  | S |
| C12-C16 alkylpolyglycoside [iv-2] | S | S | N | S |
| C12-C18 fatty acid methyl ester [ii-2] | S | N | N | N |
| Castor Oil POE 16 [vi-3] | N | N | N | N |
| Castor Oil POE 40 [vi-4] | N | N |  | N |
| Dibutyl Naphthalene Sulfonate, Sodium [viii-1] |  | E (E represents an Enhancing result) |  | E (E represents an Enhancing result) |
| Isodecyl alcohol POE6 phosphate ester [xix-3] | S | S | S | S |

| Compound | Influence of additive on microbial growth slope (compatibility), Bacillus firmus [1] | Influence of additive on microbial growth slope (compatibility), Bacillus subtilis [2] | Influence of additive on microbial growth slope (compatibility), Pseudomonas fluorescens [3] | Influence of additive on microbial growth slope (compatibility), Bacillus amyloliquefaciens [4] |
| --- | --- | --- | --- | --- |
| Magnesium Oleate [xviii-1] | S | S | S |  |
| Olleyl-Cetyl alcohol (80% Oleyl) [xvi-2] | S | N | N | N |
| Olleyl-Cetyl alcohol (90% Oleyl) [xvi-3] | S | S | S | S |
| PEG 400 monolaurate [v-1] |  | N | S | N |
| PEG 400 monooleate [v-2] |  | N | S | N |
| Sodium Lauryl ether sulfate [xvii-1] | S | S | S | S |
| Sodium Tallowate [xviii-2] |  |  | S |  |
| Sorbitan monolaurate POE 20 [xii-2] | S | S | S | S |
| Sorbitan monooleate POE 20 [xii-3] | S | N | N | N |
| Sorbitan monooleate [xii-1] | S | S | E (E represents an Enhancing result) | S |
| Sorbitan trioleate POE 20 [xii-4] | S | N | S | S |
| Soybean Oil POE 10 [vi-1] | S | N | E (E represents an Enhancing result) | N |
| Soybean Oil POE 30 [vi-2] | N | S | N | S |
| Tallow amine POE15 [xiii-1] | S | S | E (E represents an Enhancing result) | S |
| Tallow amine POE20 [xiii-2] | S | S |  | S |
